Results on 21 compounds are retold here after patent publication US8796268B2, “Heteroaryls and uses thereof” (Millennium Pharmaceuticals, Inc., priority 2010, dated 2014).

Where a name gives a salt, the structure may show the parent alone.

What all share (type): biochemical
The target in one assay is T1, Human PI3K delta (Homo sapiens, UniProt O00329).
T1 construct: His (N); host or cells: SF9 insect cells (baculovirus)
Nature of the assay: Human PI3K delta enzyme assay (HTRF). Conditions: at a 1.0 μM concentration; read-out: PI3Kδ Percent Inhibition. In short, it runs like this: (§1)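 Compounds were mixed with 25 uM ATP, then with 3.5 uM di-C8 PI(4,5)P2 and His-tagged PI3K isoform (β 5.25 nM, δ 0.75 nM, γ 5 nM) at pH 7.00. After 30 min at room temperature, EDTA stopped the reaction and PIP3 was measured by HTRF over 1 h.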

In another assay the target is T2, Human PI3K alpha (Homo sapiens, UniProt P42336).
T2 construct: His (N); host or cells: SF9 insect cells (baculovirus)
Put plainly: Human PI3K alpha enzyme assay (HTRF). To be noted: at a 1.1 μM concentration; read-out: PI3Kα Percent Inhibition.

The target of a further assay is T3, Human PI3K gamma (Homo sapiens, UniProt P48736).
T3 construct: His (N); host or cells: SF9 insect cells (baculovirus)
Put plainly: Human PI3K gamma enzyme assay (HTRF). To be noted: at a 1.0 μM concentration; read-out: PI3Kγ Percent Inhibition. In short, it runs like this:
as §1

Another assay deals with T4, Human VPS34 (Homo sapiens, UniProt Q8NEB9).
T4 construct: GST (with thrombin site, pDEST20-Thrombin) (N); host or cells: SF9 insect cells (baculovirus)
Put plainly: Human VPS34 enzyme assay (Adapta Universal Kinase Assay). To be noted: at a 1.0 μM concentration; read-out: VPS34 Percent Inhibition. The source says: The catalytic subunits of PI3Ks are cloned into either pDEST8(p110 alpha) or pDEST10(p110beta, p110delta, and p110gamma) as N-terminal His tagged fusion proteins using the Gateway system (Invitrogen, catalog#11804-010 for pDEST8 and 11806-015 for pDEST10). The sequences are verified before recombinant protein expression using the Baculovirus Expression System with Gateway® Technology. The accession numbers for the subunits are as follows: • p110 alpha (GB:U79143) • p110beta (GB: S67334) • p110delta (GB: U86453) • p110gamma (GB: X83368) • The regulatory subunits of PI3Ks are cloned into pDEST8 as un-tagged protein using the Gateway system (Catalog#11804-010). The sequences are verified before recombinant protein expression using the Baculovirus Expression System with Gateway® Technology. The accession numbers for the subunits are as following: • p85 alpha (GB: BC030815) • p101(GB: AB028925) • VPS34 (accession number GB:BC033004) is cloned into pDEST20—Thombin as N-terminal GST tagged fusion proteins using the Gateway system (Invitrogen, catalog#11804-013). The sequences are verified before recombinant protein expression using the Baculovirus Expression System with Gateway® Technology.
For expression VPS34 was infected at 1MOI in SF9 cells and harvested 72 hours post infection.
For purification, VPS34 is purified by Glutathione Sepharose 4 Fast Flow (GE Healthcare #17-5132-03) followed by HiTrap Q (GE Healthcare #17-1153-01).
3) VPS34 is assayed using Adapta™ Universal Kinase Assay Kit (Invitrogen).
4) Human VPS34 enzyme assay method
100 nL compounds in DMSO are added to wells of a 384 well microtitre plate (Greiner 780076). At room temperature: 5 ul VPS34 reaction buffer (Invitrogen Assay Buffer Q (diluted 1 in 5 with nanopure water) plus 2 mM DTT and 2 mM MnCl2) containing ATP (20 uM, Promega) and 200 uM PI—PS substrate (Invitrogen PV5122) is added followed immediately by 5 ul VPS34 reaction buffer (as above) containing VPS34 (5 nM, Millennium Protein Sciences Group) and the mixture is incubated with shaking at room temperature for 1 hour. Then 5 ul VPS34 stop-detect mix (as per Invitrogen Adapta Assay kit (PV5009) instructions (contains kinase quench buffer, TR-FRET buffer, Adapta Eu anti-ADP antibody and Alexa Fluor 647 ADP tracer)) is added to quench the reaction. The plates are then incubated for 30 minutes at room temperature with shaking and then read on a BMG PheraStar Plus reader.
For the assay methods described above, test compound percent inhibition, at various concentrations, is calculated relative to control (DMSO and EDTA) treated samples. Compound concentration versus percent inhibition curves are fitted to generate IC50 values. One skilled in the art will appreciate that the values generated either as percentage inhibition at a single concentration or IC50 values are subject to experimental variation.

The next assay concerns the target T5, Human PI3K beta (Homo sapiens, UniProt P42338).
T5 construct: His (N); host or cells: SF9 insect cells (baculovirus)
Put plainly: Human PI3K beta enzyme assay (HTRF). To be noted: at a 1.1 μM concentration; read-out: PI3β Percent Inhibition. A digest of the protocol:
as §1

T4 sequence (Q8NEB9 whole entry): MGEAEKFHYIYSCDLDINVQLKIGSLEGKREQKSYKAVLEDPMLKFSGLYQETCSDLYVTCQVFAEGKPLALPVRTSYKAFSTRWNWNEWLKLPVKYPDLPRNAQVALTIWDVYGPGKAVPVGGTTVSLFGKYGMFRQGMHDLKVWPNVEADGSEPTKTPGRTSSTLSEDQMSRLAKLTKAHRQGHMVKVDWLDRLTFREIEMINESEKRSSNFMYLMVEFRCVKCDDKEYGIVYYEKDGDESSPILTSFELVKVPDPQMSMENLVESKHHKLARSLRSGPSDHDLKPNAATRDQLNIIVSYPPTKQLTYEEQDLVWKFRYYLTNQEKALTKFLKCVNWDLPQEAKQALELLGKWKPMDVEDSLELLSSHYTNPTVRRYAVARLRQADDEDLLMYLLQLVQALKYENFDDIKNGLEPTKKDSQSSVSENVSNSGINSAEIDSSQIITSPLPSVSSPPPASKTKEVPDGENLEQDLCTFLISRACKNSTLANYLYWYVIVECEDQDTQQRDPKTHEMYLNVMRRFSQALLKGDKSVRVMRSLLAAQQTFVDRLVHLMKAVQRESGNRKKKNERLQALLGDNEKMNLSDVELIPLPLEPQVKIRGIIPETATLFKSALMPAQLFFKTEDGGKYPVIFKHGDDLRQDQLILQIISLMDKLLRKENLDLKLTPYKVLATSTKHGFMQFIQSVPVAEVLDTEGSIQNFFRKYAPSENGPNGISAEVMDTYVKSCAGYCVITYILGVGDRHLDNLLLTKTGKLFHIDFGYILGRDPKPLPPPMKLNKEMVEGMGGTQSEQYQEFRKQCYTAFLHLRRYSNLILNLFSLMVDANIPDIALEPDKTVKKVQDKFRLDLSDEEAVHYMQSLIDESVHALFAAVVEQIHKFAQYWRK
T1 sequence (O00329 whole entry): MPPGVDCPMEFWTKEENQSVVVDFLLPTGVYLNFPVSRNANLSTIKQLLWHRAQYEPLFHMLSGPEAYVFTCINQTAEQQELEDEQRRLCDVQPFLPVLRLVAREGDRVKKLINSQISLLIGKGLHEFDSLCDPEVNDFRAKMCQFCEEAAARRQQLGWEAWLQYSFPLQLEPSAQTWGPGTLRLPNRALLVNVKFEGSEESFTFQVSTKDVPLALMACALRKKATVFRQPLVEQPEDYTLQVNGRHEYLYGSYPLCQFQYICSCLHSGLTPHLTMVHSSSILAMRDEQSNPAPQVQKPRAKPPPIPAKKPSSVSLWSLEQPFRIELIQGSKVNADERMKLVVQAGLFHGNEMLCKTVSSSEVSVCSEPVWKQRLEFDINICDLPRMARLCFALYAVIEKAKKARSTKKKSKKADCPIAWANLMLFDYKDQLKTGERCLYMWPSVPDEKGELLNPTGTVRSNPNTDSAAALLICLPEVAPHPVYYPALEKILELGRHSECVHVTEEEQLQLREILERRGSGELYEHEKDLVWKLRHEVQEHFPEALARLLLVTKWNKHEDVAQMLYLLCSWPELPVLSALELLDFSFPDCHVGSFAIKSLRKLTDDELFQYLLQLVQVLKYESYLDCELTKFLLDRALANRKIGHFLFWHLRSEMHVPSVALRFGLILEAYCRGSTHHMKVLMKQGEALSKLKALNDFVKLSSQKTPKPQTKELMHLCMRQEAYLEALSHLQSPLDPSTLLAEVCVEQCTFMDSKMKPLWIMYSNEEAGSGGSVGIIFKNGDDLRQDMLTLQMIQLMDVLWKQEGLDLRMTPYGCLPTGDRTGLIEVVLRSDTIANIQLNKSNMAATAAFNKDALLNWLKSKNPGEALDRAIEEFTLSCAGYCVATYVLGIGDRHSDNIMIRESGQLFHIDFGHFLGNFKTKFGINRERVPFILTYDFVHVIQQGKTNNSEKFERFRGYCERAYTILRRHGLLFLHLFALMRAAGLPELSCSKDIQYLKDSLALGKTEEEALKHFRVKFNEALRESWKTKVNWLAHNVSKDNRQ
T1 sequence (P27986 whole entry partner): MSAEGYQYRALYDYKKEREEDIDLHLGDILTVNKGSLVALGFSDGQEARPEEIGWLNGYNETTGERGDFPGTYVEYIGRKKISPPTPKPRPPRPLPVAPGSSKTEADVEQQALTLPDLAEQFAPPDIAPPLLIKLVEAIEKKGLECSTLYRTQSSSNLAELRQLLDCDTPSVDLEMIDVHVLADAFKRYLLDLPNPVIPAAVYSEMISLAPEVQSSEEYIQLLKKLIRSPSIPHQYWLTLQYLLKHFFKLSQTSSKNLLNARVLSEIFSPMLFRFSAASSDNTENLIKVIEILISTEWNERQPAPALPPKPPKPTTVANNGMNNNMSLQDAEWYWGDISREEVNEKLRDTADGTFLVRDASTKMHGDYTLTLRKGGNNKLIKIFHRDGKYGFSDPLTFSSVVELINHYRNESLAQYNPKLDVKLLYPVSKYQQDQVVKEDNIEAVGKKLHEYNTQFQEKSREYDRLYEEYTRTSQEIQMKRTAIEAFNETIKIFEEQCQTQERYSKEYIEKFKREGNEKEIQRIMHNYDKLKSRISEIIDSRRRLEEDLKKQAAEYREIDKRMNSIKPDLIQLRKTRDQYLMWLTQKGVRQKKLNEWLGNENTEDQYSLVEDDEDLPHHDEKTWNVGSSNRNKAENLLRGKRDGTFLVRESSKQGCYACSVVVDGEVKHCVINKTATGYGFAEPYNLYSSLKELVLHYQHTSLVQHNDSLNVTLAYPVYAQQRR
T2 sequence (P42336 whole entry): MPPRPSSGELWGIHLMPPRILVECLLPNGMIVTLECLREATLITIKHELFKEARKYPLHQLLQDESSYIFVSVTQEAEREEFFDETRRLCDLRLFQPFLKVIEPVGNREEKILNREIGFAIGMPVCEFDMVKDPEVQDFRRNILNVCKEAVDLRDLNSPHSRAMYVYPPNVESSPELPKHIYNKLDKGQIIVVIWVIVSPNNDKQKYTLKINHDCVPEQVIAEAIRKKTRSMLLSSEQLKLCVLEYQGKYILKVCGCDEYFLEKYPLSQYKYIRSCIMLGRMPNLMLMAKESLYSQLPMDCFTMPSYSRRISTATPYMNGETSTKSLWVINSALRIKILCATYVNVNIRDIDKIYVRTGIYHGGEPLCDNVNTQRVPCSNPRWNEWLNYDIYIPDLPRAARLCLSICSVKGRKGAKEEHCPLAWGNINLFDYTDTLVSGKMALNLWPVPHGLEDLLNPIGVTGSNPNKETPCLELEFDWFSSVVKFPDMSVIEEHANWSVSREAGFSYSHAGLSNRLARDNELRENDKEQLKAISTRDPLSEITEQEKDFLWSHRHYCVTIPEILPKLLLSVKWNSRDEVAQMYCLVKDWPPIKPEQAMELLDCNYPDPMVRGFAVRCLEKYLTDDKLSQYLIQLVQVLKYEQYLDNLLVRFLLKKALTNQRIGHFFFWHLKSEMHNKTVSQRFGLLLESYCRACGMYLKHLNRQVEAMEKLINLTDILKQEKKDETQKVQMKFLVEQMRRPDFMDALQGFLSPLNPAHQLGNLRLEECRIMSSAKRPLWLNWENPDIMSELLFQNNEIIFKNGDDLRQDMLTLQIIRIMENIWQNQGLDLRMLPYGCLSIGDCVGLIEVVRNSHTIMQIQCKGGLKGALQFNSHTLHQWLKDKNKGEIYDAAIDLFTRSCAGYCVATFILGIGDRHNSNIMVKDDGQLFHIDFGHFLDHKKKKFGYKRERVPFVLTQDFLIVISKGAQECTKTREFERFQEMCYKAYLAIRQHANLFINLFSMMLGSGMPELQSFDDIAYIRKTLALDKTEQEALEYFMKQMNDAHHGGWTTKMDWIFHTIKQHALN
T2 sequence (P27986 whole entry partner): as the sequence (P27986 whole entry partner) above
T5 sequence (P42338 whole entry): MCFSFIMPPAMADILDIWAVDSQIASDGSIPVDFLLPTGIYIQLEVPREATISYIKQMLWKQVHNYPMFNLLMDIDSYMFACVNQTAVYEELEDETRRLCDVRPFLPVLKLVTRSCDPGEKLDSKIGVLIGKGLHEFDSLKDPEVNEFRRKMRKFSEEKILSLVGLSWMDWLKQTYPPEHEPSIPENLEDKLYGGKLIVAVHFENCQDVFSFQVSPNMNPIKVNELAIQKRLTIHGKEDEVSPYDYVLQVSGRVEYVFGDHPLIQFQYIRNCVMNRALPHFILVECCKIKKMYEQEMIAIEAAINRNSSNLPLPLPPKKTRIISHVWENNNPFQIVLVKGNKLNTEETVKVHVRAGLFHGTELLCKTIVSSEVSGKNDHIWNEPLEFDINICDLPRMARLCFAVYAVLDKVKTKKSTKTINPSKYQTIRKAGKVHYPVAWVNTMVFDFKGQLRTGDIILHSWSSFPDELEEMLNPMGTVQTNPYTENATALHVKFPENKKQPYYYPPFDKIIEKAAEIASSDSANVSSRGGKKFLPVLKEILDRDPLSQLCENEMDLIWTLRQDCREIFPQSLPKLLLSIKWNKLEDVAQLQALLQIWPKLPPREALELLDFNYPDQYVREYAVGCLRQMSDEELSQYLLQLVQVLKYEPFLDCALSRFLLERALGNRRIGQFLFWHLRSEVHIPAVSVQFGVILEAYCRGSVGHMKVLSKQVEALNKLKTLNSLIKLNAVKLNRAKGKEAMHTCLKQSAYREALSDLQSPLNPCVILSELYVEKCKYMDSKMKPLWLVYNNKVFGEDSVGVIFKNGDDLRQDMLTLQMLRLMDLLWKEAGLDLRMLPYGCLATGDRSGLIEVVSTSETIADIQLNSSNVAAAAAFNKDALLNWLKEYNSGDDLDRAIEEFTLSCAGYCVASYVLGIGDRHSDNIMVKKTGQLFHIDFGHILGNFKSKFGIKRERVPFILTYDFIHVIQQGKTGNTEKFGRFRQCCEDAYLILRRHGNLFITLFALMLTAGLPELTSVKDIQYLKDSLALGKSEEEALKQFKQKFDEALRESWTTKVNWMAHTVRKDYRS
T5 sequence (P27986 whole entry partner): as the sequence (P27986 whole entry partner) above

Turning to `CC(c1ccc(Cl)cc1)c1nc(N2CCOCC2)sc1C(=O)O` (stereo not drawn) [Compound 121, 4-[1-(4-chlorophenyl)ethyl]-2-(morpholin-4-yl)-1,3-thiazole-5-carboxylic acid], the inhibition at 1 µM at Human PI3K delta is 77.3%; at Human PI3K gamma, 7.3%; on Human VPS34 it was 64.8%. In addition, the inhibition at 1.1 µM was determined as 11% at Human PI3K alpha and 59% at Human PI3K beta.
Taken in the same sequence, the figures for `O=C(O)c1sc(N2CCOCC2)nc1Cc1ccc2cc(F)ccc2c1` [Compound 128] were 114%, 63.4%, 88.1%, 46% and 106%.
Taken in the same sequence, the figures for `O=C(O)c1sc(N2CCOCC2)nc1Cc1ccc(Cl)cc1Cl` [Compound 104] were 93%, 28.8%, 63.2%, 26% and 109%.
Taken in the same sequence, the figures for `N#Cc1c(N2CCOCC2)sc(C(=O)O)c1Cc1ccc(Cl)cc1Cl` [Compound 96] were 96%, 36.2%, 47.8%, 58% and 109%.
Take `N#Cc1c(N2CCOCC2)sc(C(=O)O)c1C(N)c1ccc(Cl)cc1` (stereo not drawn) [Compound 113, 3-[amino(4-chlorophenyl)methyl]-4-cyano-5-(morpholin-4-yl)thiophene-2-carboxylic acid hydrochloride]: the inhibition at 1 µM was 78.8% at Human PI3K delta, 32.5% on Human PI3K gamma and 18.1% at Human VPS34. The inhibition at 1.1 µM on Human PI3K alpha came to 25%; on Human PI3K beta it was 100%.
Taken in the same sequence, the figures for `O=C(O)c1sc(C2=CCOCC2)nc1Cc1ccc(Cl)cc1` [Compound 100, 4-(4-chlorobenzyl)-2-(3,6-dihydro-2H-pyran-4-yl)-1,3-thiazole-5-carboxylic acid] were 65.5%, 13.2%, 36.6%, 20% and 98%.
In the case of `N#Cc1c(C2=CCOCC2)sc(C(=O)O)c1Cc1ccc(Cl)cc1` [Compound 95, 3-(4-chlorobenzyl)-4-cyano-5-(3,6-dihydro-2H-pyran-4-yl)thiophene-2-carboxylic acid], the inhibition at 1 µM on Human PI3K delta was 86.1%; at Human PI3K gamma, 23.9%; at Human VPS34 it was 167%. Besides, the results for the inhibition at 1.1 µM at Human PI3K alpha and at Human PI3K beta were 68% and 101%, respectively.
Regarding `N#Cc1c(N2CCOCC2)sc(C(=O)O)c1Cc1ccc(F)cc1` [Compound 97], the inhibition at 1 µM was found to be 89.8% on Human PI3K delta, 17.8% at Human PI3K gamma and 45% at Human VPS34. The inhibition at 1.1 µM turned out to be 53% at Human PI3K alpha and 101% on Human PI3K beta.
Taken in the same sequence, the figures for `O=C(O)c1sc(N2CCOCC2)nc1Cc1ccc(F)cc1Cl` [Compound 99] were 55.4%, 6.4%, 46.7%, 12% and 72%.
For `N#Cc1c(N2CCOCC2)sc(C(=O)O)c1Cc1c(F)cc(Cl)cc1F` [Compound 126], the values for the inhibition at 1 µM at Human PI3K delta, at Human PI3K gamma and at Human VPS34 were 100%, 37.6% and 44%, respectively. Moreover, the inhibition at 1.1 µM was determined as 42% on Human PI3K alpha and 103% at Human PI3K beta.
Taken in the same sequence, the figures for `O=C(O)c1sc(N2CCOCC2)nc1Cc1ccc(Cl)c(F)c1` [Compound 118, 4-(4-chloro-3-fluorobenzyl)-2-morpholin-4-yl-1,3-thiazole-5-carboxylic acid] were 89.3%, 27.5%, 68.2%, 28% and 104%.
Taken in the same sequence, the figures for `N#Cc1c(N2CCOCC2)sc(C(=O)O)c1Cc1ccc(Cl)c(F)c1` [Compound 94, 3-(4-chloro-3-fluorobenzyl)-4-cyano-5-morpholin-4-ylthiophene-2-carboxylic acid] were 102%, 52.6%, 30.6%, 58% and 97%.
Taken in the same sequence, the figures for `COc1cc(Cc2c(C(=O)O)sc(N3CCOCC3)c2C#N)ccc1Cl` [Compound 122] were 96.2%, 49.6%, 55.2%, 49% and 106%.
Turning to `O=C(O)c1sc(N2CCOCC2)nc1Cc1ccc2ccccc2c1` [Compound 98], the inhibition at 1 µM at Human PI3K delta came out at 108%; on Human PI3K gamma it was 67.6%; on Human VPS34, 68.9%. Besides, the values for the inhibition at 1.1 µM at Human PI3K alpha and at Human PI3K beta were 58% and 111%, respectively.
`COc1cc(Cc2c(C(=O)O)sc(N3CCOCC3)c2C#N)c(F)cc1Cl` [Compound 127]: the inhibition at 1 µM is 100% at Human PI3K delta, 55% at Human PI3K gamma and 33.7% on Human VPS34. For the same compound, the inhibition at 1.1 µM at Human PI3K alpha was 40%; at Human PI3K beta, 110%.
Taken in the same sequence, the figures for `COc1ccc(Cc2c(C(=O)O)sc(N3CCOCC3)c2C#N)cc1Cl` [Compound 108] were 99.6%, 38.1%, 62.4%, 44% and 100%.
Taken in the same sequence, the figures for `N#Cc1c(N2CCOCC2)sc(C(=O)O)c1Cc1ccc(Cl)cc1F` [Compound 123] were 96.8%, 36.6%, 45.1%, 64% and 105%.
Taken in the same sequence, the figures for `N#Cc1c(N2CCOCC2)sc(C(=O)O)c1Cc1ccc2ccccc2c1` [Compound 112] were 114%, 69%, 37.8%, 95% and 110%.
As to `N#Cc1ccc(Cc2nc(N3CCOCC3)sc2C(=O)O)cc1` [Compound 93], the values for the inhibition at 1 µM on Human PI3K delta, on Human PI3K gamma and at Human VPS34 were 46%, 9.5% and 19.2%, respectively. For the same compound, the results for the inhibition at 1.1 µM on Human PI3K alpha and at Human PI3K beta were 9% and 80%, respectively.
For `COc1ccc(Cc2c(C(=O)O)sc(N3CCOCC3)c2C#N)cc1` [Compound 105], the inhibition at 1 µM was found to be 51.2% on Human PI3K delta, 9.8% on Human PI3K gamma and 22.6% on Human VPS34. The inhibition at 1.1 µM on Human PI3K alpha amounted to 21%; on Human PI3K beta, 98%.
`N#Cc1c(N2CCOCC2)sc(C(=O)O)c1Cc1ccc(Cl)c(Cl)c1` [Compound 124]: the inhibition at 1 µM on Human PI3K delta amounted to 112%; at Human PI3K gamma it was 74.2%; on Human VPS34, 78.8%. The figures for the inhibition at 1.1 µM on Human PI3K alpha and on Human PI3K beta were 79% and 109%, respectively.
